Data on 16 molecules can be found in ChEMBL document CHEMBL1138403, “Nitrogen-containing flavonoids as CDK1/Cyclin B inhibitors: design, synthesis, and biological evaluation” (Bioorg Med Chem Lett, 2007).

Broadly, the IC50 is the point on the concentration scale where inhibition reaches its midpoint. Read a high IC50 as weaker potency.

Experiment [1] is described as follows: Inhibition of CDK1/Cyclin B. More on the design: species or system Homo sapiens.
The test system of another experiment is Bel-7402. Nature of the experiment: Antiproliferative activity against human Bel7402 cells after 72 hrs. Format: functional, cell-based. The note with it: Bel-7402, 72 h.
The subject of experiment [2] is PC-3. Nature of the experiment: Antiproliferative activity against human PC3 cells after 72 hrs. Format: functional, cell-based. To be noted: PC-3, 72 h.
Experiment [3] can be described thus: Antiproliferative activity against human ECA109 cells after 72 hrs. Format: functional, cell-based. The note with it: ECa-109, 72 h.
Another experiment has as its system A549. Nature of the experiment: Antiproliferative activity against human A549 cells after 72 hrs. Format: functional, cell-based. The note with it: A549, 72 h.
For the next experiment, the system named is HL-60. Nature of the experiment: Antiproliferative activity against human HL60 cells after 72 hrs. Format: functional, cell-based. To be noted: HL-60, 72 h.
Another experiment relates to MCF7. In words: Antiproliferative activity against human MCF7 cells after 72 hrs. Format: functional, cell-based. The note with it: MCF7, 72 h.
Experiment [4] concerns PC-3. Nature of the experiment: Cell cycle arrest in human PC3 cells assessed as accumulation at G0/G1 phase at 7.2 uM after 12 hrs relative to control by flow cytometry. Format: functional. (In general: Flow cytometry measures light scatter and fluorescence of single cells or particles in a stream.)
The test system of experiment [5] is PC-3. Nature of the experiment: Cell cycle arrest in human PC3 cells assessed as accumulation at S phase at 7.2 uM after 12 hrs relative to control by flow cytometry. Format: functional.
Experiment [6] deals with PC-3. In words: Cell cycle arrest in human PC3 cells assessed as accumulation at G2/M phase at 7.2 uM after 12 hrs relative to control by flow cytometry. Format: functional.
Experiment [7] concerns PC-3. In words: Cell cycle arrest in human PC3 cells assessed as accumulation at SubG0 phase at 7.2 uM after 12 hrs relative to control by flow cytometry. Format: functional.
In experiment [8] the test system is PC-3. Nature of the experiment: Cell cycle arrest in human PC3 cells assessed as accumulation at G0/G1 phase at 7.2 uM after 24 hrs relative to control by flow cytometry. Format: functional.
The test system of experiment [9] is PC-3. Nature of the experiment: Cell cycle arrest in human PC3 cells assessed as accumulation at S phase at 7.2 uM after 24 hrs relative to control by flow cytometry. Format: functional.
Experiment [10] concerns PC-3. In words: Cell cycle arrest in human PC3 cells assessed as accumulation at G2/M phase at 7.2 uM after 24 hrs relative to control by flow cytometry. Format: functional.
Experiment [11] relates to PC-3. Nature of the experiment: Cell cycle arrest in human PC3 cells assessed as accumulation at SubG0 phase at 7.2 uM after 24 hrs relative to control by flow cytometry. Format: functional.
The subject of experiment [12] is PC-3. In words: Effect on morphology of human PC3 cells assessed as increase in chromatin condensation by staining method. Format: functional, cell-based.

As for `COc1cc(O)c2c(=O)cc(-c3ccccc3Cl)oc2c1CN1CCOCC1`, the IC50 in [1] was more than 3 µM; in the experiment with Bel-7402, more than 150 µM; in the experiment with PC-3 [2], 42 µM; in [3] it was 86.6 µM; in the experiment on A549, more than 150 µM; in the experiment with HL-60, 26.9 µM. Besides, it took 124 µM to reach half-maximal inhibition in the experiment on MCF7 (IC50).

For `COc1cc(OC)c(C(=O)/C=C/c2ccccc2Cl)c(O)c1CN(C)CCO`, the half-maximal inhibitory concentration (IC50) in experiment [1] was more than 3 µM; with Bel-7402 it was 64.4 µM; with PC-3 [2], 6.2 µM; in experiment [3], 0.8 µM; in the experiment on A549 it was 6.9 µM; in the experiment with HL-60, 19.7 µM. This molecule registered an IC50 in the experiment with MCF7 of 10 µM.

`COc1cc(OC)c(C(=O)/C=C/c2ccccc2Cl)c(O)c1CN(C)CCCN(C)C`: the 50% inhibitory concentration (IC50) in [1] came out at 0.468 µM; in the experiment with Bel-7402, 30.9 µM; in the experiment on PC-3 [2], 14.5 µM; in experiment [3], 3.8 µM; in the experiment with A549 it was 3.1 µM; with HL-60 it was 11.4 µM. The molecule also came in with a 50% inhibitory concentration (IC50) in the experiment with MCF7 of 3.2 µM.

`COc1cc(O)c2c(=O)cc(-c3ccccc3Cl)oc2c1CN1CCCCC1`: the IC50 in experiment [1] stood at 0.138 µM; in the experiment on Bel-7402 it was 118 µM; in the experiment with PC-3 [2], 63.4 µM; in [3], 21.5 µM; with A549, 45.5 µM; in the experiment on HL-60 it was 48.1 µM.

On to `COc1cc(OC)c(C(=O)/C=C/c2ccccc2Cl)c(O)c1CN(C)CCOC(C)=O`, for which the IC50 in experiment [1] is 0.324 µM; in the experiment with Bel-7402, 8.1 µM; in the experiment with PC-3 [2] it was 10 µM; in [3], 3.9 µM; in the experiment on A549 it was 3.3 µM; in the experiment with HL-60 it was 10.8 µM. This molecule also displayed an IC50 in the experiment with MCF7 of 5.1 µM.

`COc1cc(OC)c(C(=O)/C=C/c2ccccc2Cl)c(O)c1CN(C)CC(=O)O`: the IC50 with Bel-7402 came out at 35.2 µM; in the experiment on PC-3 [2], 12.5 µM; in experiment [3] it was 44.4 µM; in the experiment with A549 it was 79.4 µM; in the experiment with HL-60, 80.3 µM; in the experiment on MCF7, 73.2 µM.

As to `COc1cc(OC)c2c(=O)cc(-c3ccccc3Cl)oc2c1CN1CCCCC1`, the IC50 is 0.155 µM in [1]; 44.2 µM in the experiment with Bel-7402; 15.5 µM in the experiment on PC-3 [2]; 23.7 µM in experiment [3]; more than 150 µM in the experiment on A549; 34.5 µM in the experiment with HL-60. For the same molecule, the IC50 with MCF7 is 23.7 µM.

On to `CCN(C)Cc1c(OC)cc(OC)c(C(=O)/C=C/c2ccccc2Cl)c1O`, for which the half-inhibitory concentration (IC50) in experiment [1] amounted to 0.0758 µM; in the experiment on Bel-7402, 23.3 µM; in the experiment on PC-3 [2] it was 0.003 µM; in [3] it was 1.4 µM; in the experiment with A549 it was 1.3 µM; with HL-60 it was 0.2 µM. Moreover, in the experiment with MCF7, the IC50 stood at 6.8 µM.

As for `COc1cc(OC)c(C(=O)/C=C/c2ccccc2Cl)c(O)c1CN(C)C`, the IC50 in [1] stood at 0.503 µM; with Bel-7402, 21.8 µM; in the experiment on PC-3 [2], 0.4 µM; in experiment [3], 2.6 µM; in the experiment on A549, 2.1 µM; in the experiment on HL-60, 19.2 µM. In addition, the 50% inhibitory concentration (IC50) in the experiment on MCF7 was 0.09 µM.

For the molecule `COc1cc(OC)c(C(=O)/C=C/c2ccccc2Cl)c(O)c1CN1CCCCC1`, the half-inhibitory concentration (IC50) in experiment [1] was 0.0569 µM; in the experiment with Bel-7402, 3.1 µM; with PC-3 [2], 1.7 µM; in experiment [3] it was 2.5 µM; in the experiment on A549, 2.8 µM; in the experiment on HL-60, 3.6 µM. In the experiment with MCF7, this molecule returned a half-inhibitory concentration (IC50) of 2.6 µM. Also, the Activity is on record as 60.2% in the experiment on PC-3 [4]; 25.8% in the experiment with PC-3 [5]; 14% with PC-3 [6]; 6.1% in the experiment with PC-3 [7]; 60.7% in the experiment with PC-3 [8]; 29.9% in the experiment with PC-3 [9]. For the same molecule, the Activity is 9.8% in the experiment on PC-3 [10], 34.1% in the experiment with PC-3 [11] and “Dose-dependent effect” with PC-3 [12].

Regarding `COC(=O)CN(C)Cc1c(OC)cc(OC)c(C(=O)/C=C/c2ccccc2Cl)c1O`, the concentration for half-maximal inhibition (IC50) in experiment [1] is more than 3 µM; in the experiment with Bel-7402, 8.5 µM; in the experiment on PC-3 [2] it was 7.2 µM; in experiment [3], 13.9 µM; in the experiment on A549, 9.1 µM; in the experiment on HL-60 it was 0.4 µM. Also, in the experiment with MCF7, the IC50 worked out at 10.6 µM.

Turning to `CCN(CC)Cc1c(OC)cc(OC)c(C(=O)/C=C/c2ccccc2Cl)c1O`, the IC50 was 0.0497 µM in experiment [1]; 6.7 µM in the experiment with Bel-7402; 4.2 µM in the experiment with PC-3 [2]; 7.1 µM in experiment [3]; 3.6 µM with A549; 30.9 µM with HL-60. This molecule also yielded a half-inhibitory concentration (IC50) in the experiment with MCF7 of 2.7 µM.

Take `COc1cc(OC)c(C(=O)/C=C/c2ccccc2Cl)c(O)c1CN1CCN(C)CC1`: the IC50 in experiment [1] is more than 3 µM; in the experiment on Bel-7402, 7.6 µM; with PC-3 [2] it was 4.7 µM; in experiment [3], 7.1 µM; in the experiment with A549, 4.1 µM; in the experiment on HL-60 it was 10.9 µM. Further, in the experiment on MCF7, the 50% inhibitory concentration (IC50) worked out at 5.2 µM.

`COc1cc(OC)c(C(=O)/C=C/c2ccccc2Cl)c(O)c1CN1CCCC1`: the IC50 in experiment [1] was found to be 1.25 µM; in the experiment on Bel-7402, 6.8 µM; with PC-3 [2], 3.1 µM; in experiment [3], 6.9 µM; in the experiment on A549 it was 2.6 µM; in the experiment with HL-60, 14.2 µM. Also, the IC50 in the experiment on MCF7 came out at 3.9 µM.

`COc1cc(OC)c2c(=O)cc(-c3ccccc3Cl)oc2c1CN1CCOCC1`: the 50% inhibitory concentration (IC50) is more than 3 µM in [1]; 61.3 µM with Bel-7402; 57.8 µM in the experiment on PC-3 [2]; 61.3 µM in experiment [3]; more than 150 µM in the experiment with A549; 67.3 µM in the experiment on HL-60.

Regarding `COc1cc(OC)c(C(=O)/C=C/c2ccccc2Cl)c(O)c1CN1CCOCC1`, the IC50 was 0.0475 µM in experiment [1]; 22.7 µM with Bel-7402; 17.2 µM in the experiment on PC-3 [2]; 6.2 µM in experiment [3]; 4.8 µM in the experiment with A549; 6.9 µM with HL-60. The molecule further registered a half-maximal inhibitory concentration (IC50) in the experiment on MCF7 of 17.2 µM.
